Measured values reported in ChEMBL document CHEMBL1152841, “Conformationally constrained analogues of N'-(4-tert-butylbenzyl)-N-(4-methylsulfonylaminobenzyl)thiourea as TRPV1 antagonists” (Eur J Med Chem, 2009).

Experiments:
[1] = target: Transient receptor potential cation channel subfamily V member 1 (Rattus norvegicus) (UniProt O35433); assay: Agonist activity at rat TRPV1 expressed in CHO cells by 45Ca2+ uptake assay relative to capsaicin; type: functional, cell-based
[2] = target: T1, Transient receptor potential cation channel subfamily V member 1 (Rattus norvegicus, UniProt O35433); assay: Agonist activity at rat TRPV1 expressed in CHO cells by 45Ca2+ uptake assay; type: functional, cell-based
T1 sequence (O35433 whole entry): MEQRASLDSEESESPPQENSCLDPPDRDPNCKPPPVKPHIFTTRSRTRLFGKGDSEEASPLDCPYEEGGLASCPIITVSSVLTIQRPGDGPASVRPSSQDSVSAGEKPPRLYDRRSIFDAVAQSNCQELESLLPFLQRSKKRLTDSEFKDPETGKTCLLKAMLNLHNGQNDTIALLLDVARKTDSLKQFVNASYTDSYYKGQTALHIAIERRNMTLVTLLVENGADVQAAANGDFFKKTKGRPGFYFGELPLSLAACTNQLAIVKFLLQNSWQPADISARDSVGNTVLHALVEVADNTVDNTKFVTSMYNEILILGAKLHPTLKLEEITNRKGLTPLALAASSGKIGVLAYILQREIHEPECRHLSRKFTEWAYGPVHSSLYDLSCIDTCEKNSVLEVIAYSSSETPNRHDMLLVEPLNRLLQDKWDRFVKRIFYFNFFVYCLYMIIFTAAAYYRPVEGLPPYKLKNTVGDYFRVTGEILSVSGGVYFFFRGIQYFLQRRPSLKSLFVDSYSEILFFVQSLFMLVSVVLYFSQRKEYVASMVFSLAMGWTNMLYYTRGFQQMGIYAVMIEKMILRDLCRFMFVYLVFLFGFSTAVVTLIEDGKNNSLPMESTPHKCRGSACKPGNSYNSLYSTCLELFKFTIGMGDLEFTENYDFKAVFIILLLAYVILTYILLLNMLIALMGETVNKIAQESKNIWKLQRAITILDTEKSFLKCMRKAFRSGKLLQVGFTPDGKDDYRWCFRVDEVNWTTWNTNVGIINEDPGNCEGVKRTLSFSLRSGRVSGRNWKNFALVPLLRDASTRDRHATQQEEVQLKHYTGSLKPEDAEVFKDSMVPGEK

[3] = target: T1, Transient receptor potential cation channel subfamily V member 1; assay: Displacement of [3H]resiniferatoxin from rat TRPV1 expressed in CHO cells by scintillation counting; type: cell-based
[4] = target: T1, Transient receptor potential cation channel subfamily V member 1; assay: Antagonist activity at rat TRPV1 expressed in CHO cells assessed as capsaicin-stimulated 45Ca2+ uptake; type: functional, cell-based

Chain of Transient receptor potential cation channel subfamily V member 1 (Rattus norvegicus) (O35433 whole entry): as above

COc1cc(CNC(=S)NCc2ccc(C(C)(C)C)cc2)ccc1NS(C)(=O)=O
Activity [1]: 17% | EC50 [2]: 32.4 nM

COc1c(NS(C)(=O)=O)ccc2c1CCCC2NC(=S)NCc1ccc(C(C)(C)C)cc1 (centres undefined)
Ki [3]: 1750 nM | Ki [4]: 4700 nM

COc1cc2c(cc1NS(C)(=O)=O)CCCC2NC(=S)NCc1ccc(C(C)(C)C)cc1 (centres undefined)
Activity [1]: 14% | Ki [3]: 6900 nM

CC(C)(C)c1ccc(CNC(=S)NC2CCc3cc(NS(C)(=O)=O)ccc32)cc1 (centres undefined)
Ki [3]: 660 nM | Ki [4]: 740 nM

CC(C)(C)c1ccc(CNC(=S)NC2CCCc3cc(NS(C)(=O)=O)ccc32)cc1 (centres undefined)
Ki [3]: 1590 nM | Ki [4]: 2640 nM

COc1c(NS(C)(=O)=O)ccc2c1CCC2NC(=S)NCc1ccc(C(C)(C)C)cc1 (centres undefined)
Ki [3]: 1820 nM | Ki [4]: 1690 nM

COc1cc2c(cc1NS(C)(=O)=O)CCC2NC(=S)NCc1ccc(C(C)(C)C)cc1 (centres undefined)
Ki [3]: 3370 nM | Ki [4]: 25000 nM
